Laboratory results: EPA's CvTdb concentration-time database

Assays:
Rat [1] = experiment: concentration in plasma after dosing; settings: 10 min; dosed: Gemfibrozil; 100 mg/kg; oral; Male; Sprague-Dawley
Rat [2] = experiment: concentration in brain after dosing; settings: 1.5 h; dosed: 2-Methyltetrahydrofuran; 40 mg/kg; iv; Male; Harlan Sprague Dawley
Rat [3] = experiment: concentration in plasma after dosing; settings: 0.75 h; dosed: 2-Methyltetrahydrofuran; 40 mg/kg; iv; Male; Harlan Sprague Dawley
Rat [4] = experiment: concentration in brain after dosing; settings: 1.5 h; dosed: 2-Methyltetrahydrofuran; 40 mg/kg; iv; Male; Harlan Sprague Dawley; remark: listed apart in the source
Rat [5] = experiment: concentration in brain after dosing; settings: 2 min; dosed: 2-Methyltetrahydrofuran; 40 mg/kg; iv; Male; Harlan Sprague Dawley
Rat [6] = experiment: concentration in plasma after dosing; settings: 6 h; dosed: Perfluorooctane Sulfonate; 2 mg/kg; oral; Female; Harlan Sprague Dawley
Rat [7] = experiment: concentration in plasma after dosing; settings: dosed: Perfluorooctane Sulfonate, 2 mg/kg, oral, Female, Harlan Sprague Dawley
Rat [8] = experiment: concentration in kidney after dosing; settings: 864 h; dosed: Perfluorooctane Sulfonate; 20 mg/kg; oral; Male; Harlan Sprague Dawley
Rat [9] = experiment: concentration in liver after dosing; settings: 3360 h; dosed: Perfluorooctane Sulfonate; 20 mg/kg; oral; Male; Harlan Sprague Dawley
Rat [10] = experiment: concentration in plasma after dosing; settings: dosed: Perfluorooctane Sulfonate, 2 mg/kg, iv, Female, Harlan Sprague-Dawley
Rat [11] = experiment: concentration in brain after dosing; settings: 24 h; dosed: Perfluorooctane Sulfonate; 2 mg/kg; oral; Female; Harlan Sprague Dawley
Rat [12] = experiment: concentration in kidney after dosing; settings: 24 h; dosed: Perfluorooctane Sulfonate; 20 mg/kg; oral; Male; Harlan Sprague Dawley
Rat [13] = experiment: concentration in brain after dosing; settings: 1848 h; dosed: Perfluorooctane Sulfonate; 20 mg/kg; oral; Female; F344
Rat [14] = experiment: concentration in liver after dosing; settings: 6 h; dosed: Perfluorooctane Sulfonate; 2 mg/kg; oral; Female; Harlan Sprague Dawley
Rat [15] = experiment: concentration in kidney after dosing; settings: 1848 h; dosed: Perfluorooctane Sulfonate; 20 mg/kg; oral; Male; Harlan Sprague Dawley
Rat [16] = experiment: concentration in liver after dosing; settings: 864 h; dosed: Perfluorooctane Sulfonate; 20 mg/kg; oral; Male; Harlan Sprague Dawley
Rat [17] = experiment: concentration in kidney after dosing; settings: 6 h; dosed: Perfluorooctane Sulfonate; 2 mg/kg; oral; Female; Harlan Sprague Dawley
Rat [18] = experiment: concentration in brain after dosing; settings: 24 h; dosed: Perfluorooctane Sulfonate; 20 mg/kg; oral; Male; Harlan Sprague Dawley
Rat [19] = experiment: concentration in liver after dosing; settings: 864 h; dosed: Perfluorooctane Sulfonate; 2 mg/kg; oral; Female; Harlan Sprague Dawley
Rat [20] = experiment: concentration in brain after dosing; settings: 24 h; dosed: Perfluorooctane Sulfonate; 20 mg/kg; oral; Female; F344
Rat [21] = experiment: concentration in plasma after dosing; settings: 0.25 h; dosed: Perfluorohexanoic Acid; 40 mg/kg; iv; Male; F344
Rat [22] = experiment: concentration in kidney after dosing; settings: 3 h; dosed: Perfluorohexanoic Acid; 80 mg/kg; oral; Female; Harlan Sprague Dawley
Rat [23] = experiment: concentration in plasma after dosing; settings: 5 min; dosed: Perfluorohexanoic Acid; 40 mg/kg; iv; Male; F344
Rat [24] = experiment: concentration in kidney after dosing; settings: 12 h; dosed: Perfluorohexanoic Acid; 80 mg/kg; oral; Male; Harlan Sprague Dawley
Rat [25] = experiment: concentration in plasma after dosing; settings: 3 h; dosed: Perfluorohexanoic Acid; 80 mg/kg; oral; Male; Harlan Sprague Dawley
Rat [26] = experiment: concentration in kidney after dosing; settings: 12 h; dosed: Perfluorohexanoic Acid; 80 mg/kg; oral; Male; Harlan Sprague Dawley; remark: listed apart in the source
Rat [27] = experiment: concentration in liver after dosing; settings: 0.5 h; dosed: Perfluorohexanoic Acid; 80 mg/kg; oral; Female; Harlan Sprague Dawley
Rat [28] = experiment: concentration in liver after dosing; settings: 3 h; dosed: Perfluorohexanoic Acid; 80 mg/kg; oral; Female; Harlan Sprague Dawley
Rat [29] = experiment: concentration in plasma after dosing; settings: 192 h; dosed: Fluorotelomer alcohol 8+2; 24 mg/kg; oral; Male; Harlan Sprague Dawley
Rat [30] = experiment: concentration in kidney after dosing; settings: 12 h; dosed: Fluorotelomer alcohol 8+2; 80 mg/kg; oral; Female; Harlan Sprague Dawley
Rat [31] = experiment: concentration in plasma after dosing; settings: 192 h; dosed: 678-39-7; 40 mg/kg; iv; Male; F344
Rat [32] = experiment: concentration in plasma after dosing; settings: dosed: 678-39-7, 40 mg/kg, iv, Female, Harlan Sprague-Dawley
Rat [33] = experiment: concentration in kidney after dosing; settings: 12 h; dosed: Fluorotelomer alcohol 8+2; 24 mg/kg; oral; Male; Harlan Sprague Dawley
Rat [34] = experiment: concentration in liver after dosing; settings: 1 h; dosed: Fluorotelomer alcohol 8+2; 80 mg/kg; oral; Female; Harlan Sprague Dawley

Cc1ccc(C)c(OCCCC(C)(C)C(=O)O)c1 [Gemfibrozil]
concentration in plasma (Rat [1]): 50400 ng/mL

CC1CCCO1 (stereo not drawn) [2-Methyltetrahydrofuran]
concentration in brain (Rat [2]): 7510 ng/mL | concentration in plasma (Rat [3]): 29200 ng/mL | concentration in brain (Rat [4]): 2800 ng/mL | concentration in brain (Rat [5]): 34000 ng/mL

O=S(=O)([O-])C(F)(F)C(F)(F)C(F)(F)C(F)(F)C(F)(F)C(F)(F)C(F)(F)C(F)(F)F [Perfluorooctane Sulfonate]
concentration in plasma (Rat [6]): 4580 ng/mL | concentration in plasma (Rat [7]; 12 h): 6280 ng/mL | concentration in plasma (Rat [7]; 528 h): 2270 ng/mL | concentration in kidney (Rat [8]): 17800 ng/g | concentration in liver (Rat [9]): 29100 ng/g | concentration in plasma (Rat [10]; 1 h): 4320 ng/mL | concentration in plasma (Rat [10]; 192 h): 3170 ng/mL | concentration in plasma (Rat [10]; 2376 h): 542 ng/mL | concentration in brain (Rat [11]): 800 ng/g | concentration in kidney (Rat [12]): 82400 ng/g | concentration in brain (Rat [13]): 1910 ng/g | concentration in liver (Rat [14]): 19800 ng/g | concentration in kidney (Rat [15]): 10200 ng/g | concentration in liver (Rat [16]): 97500 ng/g | concentration in kidney (Rat [17]): 9250 ng/g | concentration in brain (Rat [18]): 9740 ng/g | concentration in liver (Rat [19]): 9930 ng/g | concentration in brain (Rat [20]): 15200 ng/g

O=C(O)C(F)(F)C(F)(F)C(F)(F)C(F)(F)C(F)(F)F [Perfluorohexanoic Acid]
concentration in plasma (Rat [21]): 7150 ng/mL | concentration in kidney (Rat [22]): 71400 ng/g | concentration in plasma (Rat [23]): 18600 ng/mL | concentration in kidney (Rat [24]): 1990 ng/g | concentration in plasma (Rat [25]): 76100 ng/mL | concentration in kidney (Rat [26]): 1180 ng/g | concentration in liver (Rat [27]): 24900 ng/g | concentration in liver (Rat [28]): 14700 ng/g

O=C(O)CCC(F)(F)C(F)(F)C(F)(F)C(F)(F)C(F)(F)C(F)(F)C(F)(F)F [Fluorotelomer acid 7+3]
concentration in plasma (Rat [29]): 62.9 ng/mL | concentration in kidney (Rat [30]): 2750 ng/g | concentration in plasma (Rat [31]): 48.1 ng/mL | concentration in plasma (Rat [32]; 1 h): 1680 ng/mL | concentration in plasma (Rat [32]; 24 h): 315 ng/mL | concentration in kidney (Rat [33]): 573 ng/g | concentration in liver (Rat [34]): 1340 ng/g
